Results published in publication PMC11742280, “A phase I study of MLN4924 and belinostat in relapsed/refractory acute myeloid leukemia or myelodysplastic syndrome” (Cancer Chemotherapy and Pharmacology, 2025).
Like-named read-outs stand apart in the source and are kept apart here.

How the values were obtained:
[1] = Plasma pharmacokinetics of pevonedistat (LC/MS/MS, noncompartmental analysis); format: in vivo, human; details: for Cmax: read-out: preEOI Cmax (peak plasma concentration); for clearance: read-out: Cl (systemic clearance) (converted)
Procedure: Plasma was stored at − 80 °C until analysis.
Pharmacokinetic parameters were summarized using descriptive statistics.

[2] = test system: AML; design: method as in PMID 25733005; details: cited from earlier work
[3] = test system: high-risk MDS; design: method as in PMID 35728048; details: pevonedistat 20 mg/m^2 D1,3,5 in combination with azacitidine; subset with high-risk MDS, post-hoc analysis, non-statistically significant improvement; cited from earlier work
[4] = test system: xenograft models of solid tumors, lymphoma, and AML; design: method as in PMID 20203261, PMID 20525923, PMID 23633453, PMID 22562464; details: cited from earlier work
[5] = design: method as in PMID 31097586, PMID 33441097; details: e.g. value, compared with clinical Cmax; cited from earlier work
[6] = cycle 1 day 1, dose level 1, pevonedistat 20 mg/m^2 IV (belinostat 800 mg/m^2), n=2, actual values
[7] = human, plasma, iv, 37 mg/m2, cycle 1 day 1, pevonedistat 37 mg/m^2 IV, all 37 mg/m^2 patients (dose levels 3-4), mean±SD, n=6
[8] = human, plasma, iv, cycle 1 day 1, dose level 1, pevonedistat 20 mg/m^2 IV (belinostat 800 mg/m^2), n=2, actual values
[9] = human, plasma, iv, cycle 1 day 1, dose level 2, pevonedistat 25 mg/m^2 IV (belinostat 800 mg/m^2), mean±SD, n=3
[10] = human, plasma, iv, cycle 1 day 1, dose level 3, pevonedistat 37 mg/m^2 IV (belinostat 800 mg/m^2), mean±SD, n=3
[11] = human, plasma, iv, cycle 1 day 1, dose level 4, pevonedistat 37 mg/m^2 IV (belinostat 1000 mg/m^2), mean±SD, n=3

NS(=O)(=O)OC[C@@H]1C[C@@H](n2ccc3c(N[C@H]4CCc5ccccc54)ncnc32)C[C@@H]1O [Pevonedistat]
Pevonedistat AUCINF by BSA-based dose ([1]; 37 mg/m^2 compared with 20 or 25 mg/m^2, p = 0.02, Kruskal–Wallis): significantly higher | AUCINF [1, 6]: 2.85 µM·h | Cl (systemic clearance) [1, 6]: 28.5 L/h | T1/2 [1, 6]: 6.12 h | Cmax [1, 6]: 311 nM | Cl (systemic clearance) ([1]; cycle 1 day 1, dose level 3, pevonedistat 37 mg/m^2 IV (belinostat 800 mg/m^2), mean±SD, n=3): 34.9 ± 2.9 (3) L/hr | Cl (systemic clearance) ([1]; cycle 1 day 1, dose level 4, pevonedistat 37 mg/m^2 IV (belinostat 1000 mg/m^2), mean±SD, n=3): 35.5 ± 8.3 (3) L/hr | Cl (systemic clearance) ([1]; cycle 1 day 1, pevonedistat 37 mg/m^2 IV, all 37 mg/m^2 patients (dose levels 3-4), mean±SD, n=6): 35.2 ± 5.6 (6) L/hr | Pharmacokinetic parameters compared between dose levels ([1]; dose levels 1-4, Kruskal–Wallis): not different by dose level | AUC(0-inf) [1, 7]: 4.78 ± 0.958 µM·h | half-life [1, 7]: 5.79 ± 0.99 h | Cmax [1, 7]: 869 ± 290 nM | Tmax ([1]; human, plasma, iv, 37 mg/m2, cycle 1 day 1, pevonedistat 37 mg/m^2 IV, all 37 mg/m^2 patients (dose levels 3-4), median (range; n)): 0.9 h | AUC(0-inf) [1, 8]: 2.28 µM·h | Tmax [1, 8]: 0.4 h | half-life [1, 8]: 5.89 h | clearance [1, 8]: 627 mL/min | Cmax [1, 8]: 278 nM | AUC(0-inf) [1, 9]: 2.95 ± 0.666 µM·h | half-life [1, 9]: 6.52 ± 1.38 h | clearance [1, 9]: 625 mL/min | Cmax [1, 9]: 372 ± 93.2 nM | Tmax ([1]; human, plasma, iv, cycle 1 day 1, dose level 2, pevonedistat 25 mg/m^2 IV (belinostat 800 mg/m^2), median (range; n)): 0.6 h | AUC(0-inf) [1, 10]: 4.95 ± 0.426 µM·h | half-life [1, 10]: 5.97 ± 0.34 h | Cmax [1, 10]: 897 ± 26 nM | Tmax ([1]; human, plasma, iv, cycle 1 day 1, dose level 3, pevonedistat 37 mg/m^2 IV (belinostat 800 mg/m^2), median (range; n)): 0.9 h | AUC(0-inf) [1, 11]: 4.6 ± 1.42 µM·h | half-life [1, 11]: 5.61 ± 1.5 h | Cmax [1, 11]: 841 ± 455 nM | Tmax ([1]; human, plasma, iv, cycle 1 day 1, dose level 4, pevonedistat 37 mg/m^2 IV (belinostat 1000 mg/m^2), median (range; n)): 1 h | Complete remission (CR) + partial remission (PR) ([2]; single agent in AML): 17% | Maximum Tolerated Dose ([2]; single agent, D1,3,5 dosing schedule in a 21-day cycle): 59 mg/m^2 | Survival [3]: 23.8 mos | Effect on tumor growth [4]: inhibition of tumor growth | Concentrations shown to exert activity in preclinical studies [5]: 100 to 200 nM
